Experimental findings from patent publication US11957759B1, “Rapidly accelerated fibrosarcoma (RAF) degrading compounds and associated methods of use” (Arvinas Operations, Inc., priority 2022, dated 2024) are described below.

Molecules are shown by their SMILES.

For assay [1], the target named is T1, B-RAF G466V (Homo sapiens, UniProt P15056, G466V).
T1 construct: expressed in transfected cells; host or cells: T-Rex 293 cells (Invitrogen #R71007)
In words: Target protein degradation, assay D: T-Rex 293 cells, HA-BRAF_G466V, 384 well format. Type of assay: cell-based. The following applies: T-Rex 293 HA-BRAF_G466V cells, 24 hours, Examples 83-269; for DC50: Assay D; for Dmax: T-REx-293, Assay D. The essentials: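 T-Rex 293 cells stably expressing doxycycline-induced (1 ng/mL) HA-BRAF G466V treated 24 h at 37 °C with PROTACs, 11-point 1:3 dilution, 300 nM to 5 pM final, 0.5% DMSO. Fixed cells immunostained for HA and imaged by high-content microscopy; DC50 and Dmax (% of control) derived, toxicity from nuclei counts versus DMSO.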

For assay [2], the target named is T2, B-RAF V600E (Homo sapiens, UniProt P15056, V600E).
T2 construct: expressed in transfected cells; host or cells: T-Rex 293 cells (Invitrogen #R71007)
Briefly: Target protein degradation, assay C: T-Rex 293 cells, HA-BRAF_V600E, 384 well format. Type of assay: cell-based. Particulars: T-Rex 293 HA-BRAF_V600E cells, 24 hours, Examples 83-269; for DC50: Assay C; for Dmax: T-REx-293, Assay C. The procedure, abridged: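 T-Rex 293 cells stably expressing doxycycline-induced (1 ng/mL) HA-BRAF V600E were treated 24 h at 37 °C with compound (300 nM–5 pM, 11 points, 0.5% DMSO). HA immunofluorescence was quantified by high-content imaging to give DC50 and Dmax (% of control); nuclei counts versus DMSO gauged toxicity.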

T1 sequence (P15056 whole entry G466V): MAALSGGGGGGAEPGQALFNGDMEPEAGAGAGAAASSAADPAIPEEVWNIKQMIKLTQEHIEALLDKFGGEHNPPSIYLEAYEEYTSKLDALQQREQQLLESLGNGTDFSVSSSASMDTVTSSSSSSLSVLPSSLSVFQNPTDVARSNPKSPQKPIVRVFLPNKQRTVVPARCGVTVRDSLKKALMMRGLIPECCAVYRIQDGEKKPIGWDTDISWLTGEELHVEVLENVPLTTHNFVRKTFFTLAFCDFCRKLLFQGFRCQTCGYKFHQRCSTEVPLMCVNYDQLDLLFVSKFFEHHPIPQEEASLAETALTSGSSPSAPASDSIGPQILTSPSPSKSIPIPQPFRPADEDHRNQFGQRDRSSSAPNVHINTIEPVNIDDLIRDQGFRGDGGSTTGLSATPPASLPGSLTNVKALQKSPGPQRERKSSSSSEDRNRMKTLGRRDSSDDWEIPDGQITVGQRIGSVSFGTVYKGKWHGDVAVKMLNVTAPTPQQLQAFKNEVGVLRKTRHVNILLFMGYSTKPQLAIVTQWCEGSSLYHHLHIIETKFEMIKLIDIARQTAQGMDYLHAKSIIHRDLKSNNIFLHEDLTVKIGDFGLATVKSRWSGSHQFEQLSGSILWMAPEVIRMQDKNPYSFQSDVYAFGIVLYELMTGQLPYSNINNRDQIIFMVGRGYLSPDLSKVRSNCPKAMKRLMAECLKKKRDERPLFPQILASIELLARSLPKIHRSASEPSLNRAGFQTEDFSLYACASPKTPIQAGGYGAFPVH
T2 sequence (P15056 whole entry V600E): as the sequence (P15056 whole entry G466V) above, with V466G, V600E counted along it

By DC50 is commonly meant the concentration at which degradation of the target reaches its halfway point. Broadly, the Dmax is the largest share of the target that was removed. Read a high Dmax as a fuller loss of target. Take `Cn1c(=O)n(C2CCC(=O)NC2=O)c2cccc(N3CCC(CN4CCN(c5ccc(-n6cnc7ccc(Oc8c(F)ccc(NS(=O)(=O)N9CC[C@@H](F)C9)c8C#N)cc7c6=O)cc5)CC4)CC3)c21` (stereo partly drawn) [Example 98, (3R)-N-{2-cyano-3-[(3-{4-[4-({1-[1-(2,6-dioxopiperidin-3-yl)-3-methyl-2-oxo-2,3-dihydro-1H-1,3-benzodiazol-4-yl]piperidin-4-yl}methyl)piperazin-1-yl]phenyl}-4-oxo-3,4-dihydroquinazolin-6-yl)oxy]-4-fluorophenyl}-3-fluoropyrrolidine-1-sulfonamide]: in assay [1], the half-maximal degradation concentration (DC50) was in the range of 1 to 10 nM and the maximal degradation (Dmax) lay in the range of 35 to 70%. In assay [2], this compound showed a half-maximal degradation concentration (DC50) of 50 to 500 nM and a Dmax of 35 to 70%.

For the compound `N#Cc1c(NS(=O)(=O)N2CC[C@@H](F)C2)ccc(F)c1Oc1ccc2ncn(-c3cnc(C4(N5CCN(CC6CN(c7ccc8c(c7)CN(C7CCC(=O)NC7=O)C8=O)C6)CC5)CC4)nc3)c(=O)c2c1` (stereo partly drawn) [Example 99, (3R)-N-(2-cyano-3-{[3-(2-{1-[4-({1-[2-(2,6-dioxopiperidin-3-yl)-1-oxo-2,3-dihydro-1H-isoindol-5-yl]azetidin-3-yl}methyl)piperazin-1-yl]cyclopropyl}pyrimidin-5-yl)-4-oxo-3,4-dihydroquinazolin-6-yl]oxy}-4-fluorophenyl)-3-fluoropyrrolidine-1-sulfonamide], the half-maximal degradation concentration (DC50) lay within 1 to 10 nM in assay [1] and 50 to 500 nM in assay [2]. For the same compound, the Dmax in assay [1] and in assay [2] was 35 to 70% each time.

In assay [1], `N#Cc1c(NS(=O)(=O)N2CC[C@@H](F)C2)ccc(F)c1Oc1ccc2ncn(-c3cnc(C4(N5CCN(CC6CCN(c7ccc8c(c7)CN(C7CCC(=O)NC7=O)C8=O)CC6)CC5)CC4)nc3)c(=O)c2c1` (stereo partly drawn) [Example 100, (3R)-N-(2-cyano-3-{[3-(2-{1-[4-({1-[2-(2,6-dioxopiperidin-3-yl)-1-oxo-2,3-dihydro-1H-isoindol-5-yl]piperidin-4-yl}methyl)piperazin-1-yl]cyclopropyl}pyrimidin-5-yl)-4-oxo-3,4-dihydroquinazolin-6-yl]oxy}-4-fluorophenyl)-3-fluoropyrrolidine-1-sulfonamide] returned a half-maximal degradation concentration (DC50) of 1 to 10 nM and a Dmax of 35 to 70%. In assay [2], this compound had a DC50 of 50 to 500 nM and a Dmax of 35 to 70%.

In assay [1], `N#Cc1c(NS(=O)(=O)N2CC[C@@H](F)C2)ccc(F)c1Oc1ccc2ncn(-c3ccc(N4CCC(CN5CC(c6ccc7c(c6)CN(C6CCC(=O)NC6=O)C7=O)C5)CC4)cc3)c(=O)c2c1` (stereo partly drawn) [Example 101, (3R)-N-{2-cyano-3-[(3-{4-[4-({3-[2-(2,6-dioxopiperidin-3-yl)-1-oxo-2,3-dihydro-1H-isoindol-5-yl]azetidin-1-yl}methyl)piperidin-1-yl]phenyl}-4-oxo-3,4-dihydroquinazolin-6-yl)oxy]-4-fluorophenyl}-3-fluoropyrrolidine-1-sulfonamide] displayed a DC50 of 1 to 10 nM and a Dmax of 35 to 70%. In assay [2], this compound showed a DC50 of 50 to 500 nM and a Dmax of 35 to 70%.

Consider `N#Cc1c(NS(=O)(=O)N2CC[C@@H](F)C2)ccc(F)c1Oc1ccc2ncn(-c3cnc(C4(N5CCN(CC6CCN(c7ccc(NC8CCC(=O)NC8=O)cc7F)CC6)CC5)CC4)nc3)c(=O)c2c1` (stereo partly drawn) [Example 102, (3R)-N-[2-cyano-3-({3-[2-(1-{4-[(1-{4-[(2,6-dioxopiperidin-3-yl)amino]-2-fluorophenyl}piperidin-4-yl)methyl]piperazin-1-yl}cyclopropyl)pyrimidin-5-yl]-4-oxo-3,4-dihydroquinazolin-6-yl}oxy)-4-fluorophenyl]-3-fluoropyrrolidine-1-sulfonamide], for which the results for the half-maximal degradation concentration (DC50) in assay [1] and in assay [2] were above 30 nM and 50 to 500 nM, respectively. This compound showed a Dmax in assay [2] of 35 to 70%.

In assay [1], `N#Cc1c(NS(=O)(=O)N2CC[C@@H](F)C2)ccc(F)c1Oc1ccc2ncn(-c3ccc(N4CCN(CC5CCN(c6ccc7c(c6)CN([C@@H]6CCC(=O)NC6=O)C7=O)CC5)CC4)cc3)c(=O)c2c1` [Example 103, (3R)-N-(2-cyano-3-{[3-(4-{4-[(1-{2-[(3R)-2,6-dioxopiperidin-3-yl]-1-oxo-2,3-dihydro-1H-isoindol-5-yl}piperidin-4-yl)methyl]piperazin-1-yl}phenyl)-4-oxo-3,4-dihydroquinazolin-6-yl]oxy}-4-fluorophenyl)-3-fluoropyrrolidine-1-sulfonamide] yielded a DC50 of 1 to 10 nM and a Dmax of 35 to 70%. In assay [2], the DC50 is 5 to 50 nM and the Dmax lay within 35 to 70%.

`Cc1c(N2CCC(CN3CCN(c4ccc(-n5cnc6ccc(Oc7c(F)ccc(NS(=O)(=O)N8CC[C@@H](F)C8)c7C#N)cc6c5=O)cc4)CC3)CC2)ccc2c1CN(C1CCC(=O)NC1=O)C2=O` (stereo partly drawn) [Example 104, (3R)-N-{2-cyano-3-[(3-{4-[4-({1-[2-(2,6-dioxopiperidin-3-yl)-4-methyl-1-oxo-2,3-dihydro-1H-isoindol-5-yl]piperidin-4-yl}methyl)piperazin-1-yl]phenyl}-4-oxo-3,4-dihydroquinazolin-6-yl)oxy]-4-fluorophenyl}-3-fluoropyrrolidine-1-sulfonamide]: in assay [1], the half-maximal degradation concentration (DC50) was 1 to 10 nM and the maximal degradation (Dmax) lay within 35 to 70%. Further, in assay [2], the 50% degradation concentration (DC50) lay in the range of 5 to 50 nM and the greatest degradation seen (Dmax) fell in the range of 35 to 70%.

In the case of `N#Cc1c(NS(=O)(=O)N2CC[C@@H](F)C2)ccc(F)c1Oc1ccc2ncn(-c3cnc(C4(N5CCN(CC6CN(c7ccc(C8CCC(=O)NC8=O)cc7F)C6)CC5)CC4)nc3)c(=O)c2c1` (stereo partly drawn) [Example 105, (3R)-N-(2-cyano-3-{[3-(2-{1-[4-({1-[4-(2,6-dioxopiperidin-3-yl)-2-fluorophenyl]azetidin-3-yl}methyl)piperazin-1-yl]cyclopropyl}pyrimidin-5-yl)-4-oxo-3,4-dihydroquinazolin-6-yl]oxy}-4-fluorophenyl)-3-fluoropyrrolidine-1-sulfonamide], the values for the DC50 in assay [1] and in assay [2] were 1 to 10 nM and 5 to 50 nM, respectively. Also, the values for the Dmax in assay [1] and in assay [2] were at most 35% and 35 to 70%, respectively.

In the case of `N#Cc1c(NS(=O)(=O)N2CC[C@@H](F)C2)ccc(F)c1Oc1ccc2ncn(-c3cnc(C4(N5CCN(CC6CCN(c7ccc(C8CCC(=O)NC8=O)cc7F)CC6)CC5)CC4)nc3)c(=O)c2c1` (stereo partly drawn) [Example 106, (3R)-N-(2-cyano-3-{[3-(2-{1-[4-({1-[4-(2,6-dioxopiperidin-3-yl)-2-fluorophenyl]piperidin-4-yl}methyl)piperazin-1-yl]cyclopropyl}pyrimidin-5-yl)-4-oxo-3,4-dihydroquinazolin-6-yl]oxy}-4-fluorophenyl)-3-fluoropyrrolidine-1-sulfonamide], in assay [1], the DC50 was 1 to 10 nM and the Dmax is at most 35%. In assay [2], this compound returned a DC50 of 50 to 500 nM and a Dmax of 35 to 70%.

In the case of `N#Cc1c(NS(=O)(=O)N2CC[C@@H](F)C2)ccc(F)c1Oc1ccc2ncn(-c3ccc(N4CCN(CC5CN(c6ccc7c(c6)CN([C@@H]6CCC(=O)NC6=O)C7=O)C5)CC4)cc3)c(=O)c2c1` [Example 107, (3R)-N-(2-cyano-3-{[3-(4-{4-[(1-{2-[(3R)-2,6-dioxopiperidin-3-yl]-1-oxo-2,3-dihydro-1H-isoindol-5-yl}azetidin-3-yl)methyl]piperazin-1-yl}phenyl)-4-oxo-3,4-dihydroquinazolin-6-yl]oxy}-4-fluorophenyl)-3-fluoropyrrolidine-1-sulfonamide], in assay [1], the DC50 was in the range of 1 to 10 nM and the greatest degradation seen (Dmax) lay within 35 to 70%. Further, in assay [2], the DC50 was 5 to 50 nM and the Dmax lay in the range of 35 to 70%.

Regarding `N#Cc1c(NS(=O)(=O)N2CC[C@@H](F)C2)ccc(F)c1Oc1ccc2ncn(-c3cnc(C4(N5CCN(CC6CN(c7ccc(NC8CCC(=O)NC8=O)cc7F)C6)CC5)CC4)nc3)c(=O)c2c1` (stereo partly drawn) [Example 108, (3R)-N-[2-cyano-3-({3-[2-(1-{4-[(1-{4-[(2,6-dioxopiperidin-3-yl)amino]-2-fluorophenyl}azetidin-3-yl)methyl]piperazin-1-yl}cyclopropyl)pyrimidin-5-yl]-4-oxo-3,4-dihydroquinazolin-6-yl}oxy)-4-fluorophenyl]-3-fluoropyrrolidine-1-sulfonamide], in assay [1], the DC50 is 1 to 10 nM and the Dmax was at most 35%. In assay [2], this compound yielded a 50% degradation concentration (DC50) of 5 to 50 nM and a Dmax of 35 to 70%.

Regarding `CCN(C)S(=O)(=O)Nc1ccc(F)c(Oc2ccc3ncn(-c4ccc(N5CCN(CC6CCN(c7ccc8c(c7)CN(C7CCC(=O)NC7=O)C8=O)CC6)CC5)cc4)c(=O)c3c2)c1C#N` (centres unmarked) [Example 109, 2-[(3-{4-[4-({1-[2-(2,6-dioxopiperidin-3-yl)-1-oxo-2,3-dihydro-1H-isoindol-5-yl]piperidin-4-yl}methyl)piperazin-1-yl]phenyl}-4-oxo-3,4-dihydroquinazolin-6-yl)oxy]-6-{[ethyl(methyl)sulfamoyl]amino}-3-fluorobenzonitrile], the 50% degradation concentration (DC50) in assay [1] was in the range of 1 to 10 nM; in assay [2], 50 to 500 nM. The maximal degradation (Dmax) in assay [1] and in assay [2] was 35 to 70% throughout.

Turning to `CCN(C)S(=O)(=O)Nc1ccc(F)c(Oc2ccc3ncn(-c4ccc(N5CCN(CC6CCN(c7ccc(C8CCC(=O)NC8=O)cc7F)CC6)CC5)cc4)c(=O)c3c2)c1C#N` (centres unmarked) [Example 110, 2-[(3-{4-[4-({1-[4-(2,6-dioxopiperidin-3-yl)-2-fluorophenyl]piperidin-4-yl}methyl)piperazin-1-yl]phenyl}-4-oxo-3,4-dihydroquinazolin-6-yl)oxy]-6-{[ethyl(methyl)sulfamoyl]amino}-3-fluorobenzonitrile], the results for the DC50 in assay [1] and in assay [2] were above 30 nM and 50 to 500 nM, respectively. Also, the Dmax in assay [2] is 35 to 70%.
